The values below come from US20180099931A1 (AbbVie S.à.r.l., priority 2016, published 2018).

pEC50: −log10 of the molar value. Where two headings read alike, the source gives them in different places.

For the test, the target named is T1, F508delCFTR (Homo sapiens, UniProt P13569, DEL508-508).
T1 construct: expressed in transfected cells; host or cells: CFBE41o- human lung-derived epithelial cells (CFBE4lo-F508delCFTR-HRP), doxycycline-inducible
Nature of the test: Cell Surface Expression-Horse Radish Peroxidase (CSE-HRP) Assay.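 For Maximum % activity (with co-corrector): co-corrector and positive control are both the same reference corrector at 2 µM.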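 For Maximum % activity (without co-corrector): percent of the 2 µM on-plate positive control corrector response above DMSO.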 The test is classed as cell-based. Particulars: for Emax / Maximum % activity (with co-corrector): maximum at any tested concentration, normalized to on-plate positive control; for Emax: read-out: Maximum % activity (without co-corrector). The procedure:
Cell Surface Expression-Horse Radish Peroxidase (CSE-HRP) Assay;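 for Maximum % activity (with co-corrector): co-corrector and positive control are both the same reference corrector at 2 µM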;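 for Maximum % activity (without co-corrector): percent of the 2 µM on-plate positive control corrector response above DMSO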
The development was achieved by expressing the F508delCFTR mutation along with a horseradish peroxidase (HRP) in the fourth exofacial loop, and then measuring the HRP activity using luminescence readout from these cells, CFBE4lo-F508delCFTR-HRP, that were incubated overnight with the test corrector compounds, either without or with the co-corrector. […] The test compounds were then added either without or with a co-corrector at the required concentrations and further incubated for 18-24 hours at 33° C. The highest concentration tested was 20 μM with an 8-point concentration response curve using a 3-fold dilution in both the test compound without or with the co-corrector. Three replicate plates were run to determine one EC50. All plates contained negative controls (dimethyl sulfoxide, DMSO) and positive control (2 μM of 3-[(2R,4R)-4-({[1-(2,2-difluoro-1,3-benzodioxol-5-yl)cyclopropyl]carbonyl}amino)-7-methoxy-3,4-dihydro-2H-chromen-2-yl]benzoic acid) as well as on-plate concentration response of the positive control. […] The raw counts from the experiment were analyzed using Accelrys® Assay Explorer v3.3.
1−[3*SDPositive Control+3*SDNegative Control/Absolute(MeanPositive Control−MeanNegative Control)]
wherein “SD” is standard deviation.
The % activity measured at each of the 8 test concentrations of the test compound added either without or with a co-corrector (2 μM of 3-[(2R,4R)-4-({[1-(2,2-difluoro-1,3-benzodioxol-5-yl)cyclopropyl]carbonyl}amino)-7-methoxy-3,4-dihydro-2H-chromen-2-yl]benzoic acid) was normalized to the on-plate positive control using the following formulae:
% activity(Test compound without co-corrector)=[(test compound without co-corrector response−DMSO response)/(positive control response−DMSO response)]*100
% activity(Test compound with co-corrector)=[(test compound with co-corrector response−DMSO response)/(positive control response−DMSO response)]*100
The maximum % activity achieved for the test compound either without or with a co-corrector at any tested concentration is presented in Table 4 along with the respective EC50's calculated using the following general sigmoidal curve with variable Hill slope equation (described as Model 42 in the Accelrys® Assay Explorer v3.3 software):
General sigmoidal curve with concentration, response, top, bottom, EC50 and Hill slope. This model describes a sigmoidal curve with an adjustable baseline, a. The equation can be used to fit curves where response is either increasing or decreasing with respect to the independent variable, “x”.
“x” is a concentration of drug under test. “y” is the response. “a” is the maximum response, and “d” is the minimum response “c” is the inflection point (EC50) for the curve. That is, “y” is halfway between the lower and upper asymptotes when x=c. “b” is the slope-factor or Hill coefficient. The sign of b is positive when the response increases with increasing dose and is negative when the response decreases with increasing dose (inhibition).

Setting [1] is: test compound without co-corrector.
[2] abbreviates: test compound without co-corrector, read-out: EC50 (without co-corrector).
[3] abbreviates: with co-corrector (2 μM of 3-[(2R,4R)-4-({[1-(2,2-difluoro-1,3-benzodioxol-5-yl)cyclopropyl]carbonyl}amino)-7-methoxy-3,4-dihydro-2H-chromen-2-yl]benzoic acid).
[4] abbreviates: with co-corrector (2 μM of 3-[(2R,4R)-4-({[1-(2,2-difluoro-1,3-benzodioxol-5-yl)cyclopropyl]carbonyl}amino)-7-methoxy-3,4-dihydro-2H-chromen-2-yl]benzoic acid), read-out: EC50 (with co-corrector).

T1 sequence (P13569 with tags, fused parts or gaps DEL508-508): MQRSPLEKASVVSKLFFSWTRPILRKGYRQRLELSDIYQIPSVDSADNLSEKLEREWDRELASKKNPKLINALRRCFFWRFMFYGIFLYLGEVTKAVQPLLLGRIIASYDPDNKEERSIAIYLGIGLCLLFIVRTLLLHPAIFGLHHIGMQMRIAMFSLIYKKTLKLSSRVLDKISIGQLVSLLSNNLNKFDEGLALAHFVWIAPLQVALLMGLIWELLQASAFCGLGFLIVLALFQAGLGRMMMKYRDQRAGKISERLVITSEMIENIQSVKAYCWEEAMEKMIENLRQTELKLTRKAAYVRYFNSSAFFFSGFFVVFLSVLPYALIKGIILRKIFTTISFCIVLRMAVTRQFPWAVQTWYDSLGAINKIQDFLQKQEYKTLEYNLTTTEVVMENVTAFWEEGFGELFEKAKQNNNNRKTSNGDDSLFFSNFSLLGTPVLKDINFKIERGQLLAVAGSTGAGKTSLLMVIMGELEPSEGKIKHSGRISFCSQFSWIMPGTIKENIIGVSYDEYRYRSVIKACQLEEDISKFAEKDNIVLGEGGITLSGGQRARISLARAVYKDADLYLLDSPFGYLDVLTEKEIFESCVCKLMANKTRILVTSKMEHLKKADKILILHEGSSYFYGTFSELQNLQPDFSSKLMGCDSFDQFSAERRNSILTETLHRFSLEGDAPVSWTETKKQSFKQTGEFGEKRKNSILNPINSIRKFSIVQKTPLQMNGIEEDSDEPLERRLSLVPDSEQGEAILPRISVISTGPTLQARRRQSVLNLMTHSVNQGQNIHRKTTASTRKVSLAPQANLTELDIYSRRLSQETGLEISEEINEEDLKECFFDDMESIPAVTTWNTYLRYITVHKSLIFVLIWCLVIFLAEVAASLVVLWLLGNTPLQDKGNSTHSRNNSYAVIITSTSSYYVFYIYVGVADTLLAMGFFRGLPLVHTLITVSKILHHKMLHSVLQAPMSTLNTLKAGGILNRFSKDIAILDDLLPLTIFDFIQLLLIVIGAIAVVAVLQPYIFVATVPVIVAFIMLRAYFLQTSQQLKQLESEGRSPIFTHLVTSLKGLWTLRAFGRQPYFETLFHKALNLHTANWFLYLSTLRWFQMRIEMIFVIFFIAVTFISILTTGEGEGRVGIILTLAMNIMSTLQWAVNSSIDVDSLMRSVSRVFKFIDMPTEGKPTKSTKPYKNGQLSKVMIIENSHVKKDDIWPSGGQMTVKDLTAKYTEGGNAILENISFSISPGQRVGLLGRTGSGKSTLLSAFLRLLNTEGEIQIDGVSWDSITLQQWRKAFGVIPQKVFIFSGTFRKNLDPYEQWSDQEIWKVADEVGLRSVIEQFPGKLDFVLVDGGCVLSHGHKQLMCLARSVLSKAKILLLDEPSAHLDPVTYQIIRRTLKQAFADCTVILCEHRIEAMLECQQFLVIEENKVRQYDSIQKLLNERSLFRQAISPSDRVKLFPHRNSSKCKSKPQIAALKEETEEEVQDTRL

A word on the pEC50: it is the EC50 on a negative log10 scale, so that one unit is a factor of ten. On to `CC(C)(C)[C@@H]1[C@@H](NCc2cccc(Cl)c2O)[C@@H](c2ccccc2)N(C(=O)C2CCCCC2)[C@H]1C(=O)O` (racemic) [III-9], for which the Emax under setting [1] is < 100%. Besides, the pEC50 under setting [2] is < 5.00 and the pEC50 under setting [4] is 5.00 to 6.00. For the same compound, the “Maximum % activity (with co-corrector)” value under setting [3] is “++ (≥150 and <350)”.
As for `CC(C)(C)[C@@H]1[C@@H](NCc2cccc(OC3CCOCC3)n2)[C@@H](c2ccccc2)N(C(=O)C2CCCCC2)[C@H]1C(=O)O` (racemic) [III-10], the Emax under setting [1] was < 100%. Moreover, the negative logarithm of the EC50 (pEC50) runs as follows: under setting [2], < 5.00; under setting [4], 5.00 to 6.00. Moreover, the “Maximum % activity (with co-corrector)” value under setting [3] is “++ (≥150 and <350)”.
On to `COc1ccc(OC)c(CN[C@@H]2[C@@H](C(C)(C)C)[C@H](C(=O)O)N(C(=O)C3CCCCC3)[C@@H]2c2ccccc2)c1` (racemic) [III-11], for which the Emax under setting [1] is < 100%. Besides, the negative logarithm of the EC50 (pEC50) reads like this: under setting [2], 5.00 to 6.00; under setting [4], 5.00 to 6.00. Under setting [3], the “Maximum % activity (with co-corrector)” value is “++ (≥150 and <350)”.
As for `COc1ccccc1CN[C@@H]1[C@@H](C(C)(C)C)[C@H](C(=O)O)N(C(=O)C2CCCCC2)[C@@H]1c1ccccc1` (racemic) [III-12], the Emax under setting [1] is < 100%. Further, the pEC50 is, setting by setting: under setting [2], 5.00 to 6.00; under setting [4], 5.00 to 6.00. Moreover, the “Maximum % activity (with co-corrector)” value under setting [3] is recorded as “+++ (≥350)”.
As to `COc1cccc(CN[C@@H]2[C@@H](C(C)(C)C)[C@H](C(=O)O)N(C(=O)C3CCCCC3)[C@@H]2c2ccccc2)c1OC` (racemic) [III-13], the Emax under setting [1] was < 100%. Further, the negative-log EC50 (pEC50) by setting is: under setting [2], < 5.00; under setting [4], < 5.00. Also, the “Maximum % activity (with co-corrector)” value under setting [3] is on record as “+ (<150)”.
With `COc1cccc(CN[C@@H]2[C@@H](C(C)(C)C)[C@H](C(=O)O)N(C(=O)C3CCCCC3)[C@@H]2c2ccccc2)c1` (racemic) [III-14], under setting [1], the Emax was < 100%. The pEC50 runs as follows: under setting [2], < 5.00; under setting [4], 5.00 to 6.00. Besides, the “Maximum % activity (with co-corrector)” value under setting [3] is “++ (≥150 and <350)”.
As for `COc1ccc(CN[C@@H]2[C@@H](C(C)(C)C)[C@H](C(=O)O)N(C(=O)C3CCCCC3)[C@@H]2c2ccccc2)c(OC)c1Cl` (racemic) [III-15], the Emax under setting [1] is < 100%. The pEC50 is, setting by setting: under setting [2], 5.00 to 6.00; under setting [4], > 6.00. The “Maximum % activity (with co-corrector)” value under setting [3] is “++ (≥150 and <350)”.
On to `COc1ccncc1CN[C@@H]1[C@@H](C(C)(C)C)[C@H](C(=O)O)N(C(=O)C2CCCCC2)[C@@H]1c1ccccc1` (racemic) [III-16], for which the Emax under setting [1] was < 100%. Moreover, the pEC50 runs as follows: under setting [2], < 5.00; under setting [4], < 5.00. In addition, the “Maximum % activity (with co-corrector)” value under setting [3] is recorded as “+ (<150)”.
Turning to `COc1cc(C(F)(F)F)cc(N(C)[C@@H]2[C@@H](C(C)(C)C)[C@H](C(=O)O)N(C(=O)C3CCCCC3)[C@@H]2c2ccccc2)n1` (racemic) [III-17], the Emax under setting [1] was < 100%. The pEC50 by setting is: under setting [2], < 5.00; under setting [4], 5.00 to 6.00. The “Maximum % activity (with co-corrector)” value under setting [3] is “++ (≥150 and <350)”.
Turning to `COc1cccc(CN[C@@H]2[C@@H](C(C)(C)C)[C@H](C(=O)O)N(C(=O)C3CCCCC3)[C@@H]2c2ccccc2)n1` (racemic) [III-19], under setting [1], the Emax is < 100%. Also, the negative-log EC50 (pEC50) reads like this: under setting [2], 5.00 to 6.00; under setting [4], 5.00 to 6.00. For the same compound, the “Maximum % activity (with co-corrector)” value under setting [3] is “++ (≥150 and <350)”.
On to `COc1cc(OC)c(CN[C@@H]2[C@@H](C(C)(C)C)[C@H](C(=O)O)N(C(=O)C3CCCCC3)[C@@H]2c2ccccc2)cc1Cl` (racemic) [III-20], for which, under setting [1], the Emax was < 100%. Also, the pEC50 runs as follows: under setting [2], 5.00 to 6.00; under setting [4], 5.00 to 6.00. Besides, the “Maximum % activity (with co-corrector)” value under setting [3] is “++ (≥150 and <350)”.
Consider `COc1cccnc1CN[C@@H]1[C@@H](C(C)(C)C)[C@H](C(=O)O)N(C(=O)C2CCCCC2)[C@@H]1c1ccccc1` (racemic) [III-21], for which, under setting [1], the Emax is < 100%. Moreover, the negative-log EC50 (pEC50) under setting [2] was < 5.00 and the negative-log EC50 (pEC50) under setting [4] is 5.00 to 6.00. The “Maximum % activity (with co-corrector)” value under setting [3] is “++ (≥150 and <350)”.
